Results as given in patent US11390621B2, “Chiral indole compounds and their use” (ARIAGEN, INC., priority 2019, dated 2022).

Columns and labels:
[1] = Hepatocyte intrinsic clearance assay (metabolic stability), human hepatocytes; format: in vitro ADME; details: male, human, cryopreserved pooled hepatocytes, Human Hepatocytes, 1 μM test compound
Text: (§1) The liver is an important organ in the body for drug metabolism. This Example describes hepatocyte intrinsic clearance assays using both human and rat hepatocytes to evaluate the metabolic stability of the indole compounds disclosed herein. The parameters measured include t1/2 (half-life), CLint (intrinsic clearance), and EH (hepatic extraction ratio).
(§2) Testosterone (Lot FE111011-01) was obtained from Cerilliant (Round Rock, Tex.). 7-hydroxycoumarin (Lot 11631ED) was obtained from Sigma Aldrich (St. Louis, Mo.). Cryopreserved human hepatocytes pooled from ten donor males (X008001), cryopreserved male IRC/CD-1 mouse hepatocytes (M005052), INVITROGRO HI Medium (incubation), and INVITROGRO HT Medium (thawing) were obtained from Bioreclamation IVT (Baltimore, Md.). All solvents were obtained from commercial sources and used without further purification.
(§3) Each test compound was prepared as a 1 mM stock solution in DMSO. A 2 μM solution of test compound and positive controls were prepared in INVITROGRO HI Medium (incubation). These solutions were pre-warmed in a sterile incubator set to maintain 37° C., 5% CO2, and 98% humidity. Cryopreserved hepatocytes were prepared at a concentration of 2×10^6 living cells/mL in incubation media and pre-warmed in the incubator. The compound solutions and hepatocyte mixtures were then combined at a ratio of 1:1 (v:v). The final volume of the reaction mixture was 750 μL, containing 1 μM test compound (10 μM for 7-hydroxycoumarin) and […]. The reaction mixture was placed in the incubator on a plate shaker. After 0, 15, 30, 60, 90, and 120 minutes of incubation, 100 μL of reaction mixtures were removed from the incubation plate and mixed with 150 μL of ice-cold acetonitrile in a designated well of a 96-well crash plate. The 96-well crash plate was placed on ice for 15 min, and samples were centrifuged (3,600 RPM, 10 min, 4° C.) to precipitate protein. The supernatants were diluted 1:1 (v:v) with water containing 0.15 μM verapamil and/or 1 μM tolbutamide (internal standards for positive and negative modes, respectively) in a 96-well shallow injection plate. This plate was sealed for LC-MS analysis. All measurements were done in duplicate.
(§4) The residual compound remaining (% R) was determined from LC-MS peak areas by comparison to the zero time point. Metabolic half-life (t1/2) and intrinsic clearance (CLint) values were calculated from the slope of the plot of ln (% R) vs. time and the concentration of hepatocytes present in the incubation. Percent remaining at 60 minutes was calculated by plugging in the 60 minute value into the slope equation generated by the percent remaining time points.
(§5) In vivo hepatic clearance CLH was calculated using the well stirred liver model according to the following equation:
(§6) [formula] where QH is the total liver blood flow, fu is unbound fraction of the drug, and CL′int is defined as follows: CL′int=CLint×(10^6 cells/g of liver weight)×(g liver weight/kg of body weight). In the first approximation, used in this study, fu=1.
(§7) Hepatic extraction ratio EH was calculated using the following equation:
(§8) [formula] Corresponding physiological parameters used in calculations for all species are shown below in Table 3.

human hepatocytes = experiment: as above; format: in vitro ADME; details: Human Hepatocytes; for EH (hepatic extraction ratio): well stirred liver model, fu=1
Text: as §1, §2, §3, §4, §5, §6, §7, §8

AhR = target: T1, AhR (Homo sapiens, UniProt P35869); experiment: EROD assay (7-ethoxy-resorufin-O-deethylase; CYP1A1 activity) in human HepG2 cells; format: cell-based
T1 construct: host or cells: human HepG2 cells
T1 sequence (P35869 11-848): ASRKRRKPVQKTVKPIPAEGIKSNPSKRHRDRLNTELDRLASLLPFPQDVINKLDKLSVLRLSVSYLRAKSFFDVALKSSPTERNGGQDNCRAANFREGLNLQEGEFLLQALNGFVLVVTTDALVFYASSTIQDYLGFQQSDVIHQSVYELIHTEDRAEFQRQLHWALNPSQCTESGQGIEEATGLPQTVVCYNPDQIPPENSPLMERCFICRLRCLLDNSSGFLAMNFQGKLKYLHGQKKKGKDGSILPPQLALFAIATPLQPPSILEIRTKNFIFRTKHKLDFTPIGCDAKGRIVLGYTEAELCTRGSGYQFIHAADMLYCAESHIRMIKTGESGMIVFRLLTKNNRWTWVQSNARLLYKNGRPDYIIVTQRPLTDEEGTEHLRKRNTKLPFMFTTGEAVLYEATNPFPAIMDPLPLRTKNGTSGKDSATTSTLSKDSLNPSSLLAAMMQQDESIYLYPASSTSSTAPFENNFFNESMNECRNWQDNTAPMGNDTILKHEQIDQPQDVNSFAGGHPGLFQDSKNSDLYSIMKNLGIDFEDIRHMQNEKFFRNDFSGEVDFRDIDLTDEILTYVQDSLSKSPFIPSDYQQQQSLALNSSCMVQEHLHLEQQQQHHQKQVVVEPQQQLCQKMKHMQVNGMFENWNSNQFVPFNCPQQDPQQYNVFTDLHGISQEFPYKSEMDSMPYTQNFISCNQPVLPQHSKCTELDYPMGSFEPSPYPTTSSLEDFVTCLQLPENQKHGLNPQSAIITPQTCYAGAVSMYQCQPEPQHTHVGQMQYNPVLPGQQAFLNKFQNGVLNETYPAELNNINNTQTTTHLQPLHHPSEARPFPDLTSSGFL
Description: CYP1A1 induction is under the control of the AhR signaling pathway. This Example describes an in vitro assay (7-ethoxy-resorufin-O-deethylase (EROD) assay) that evaluated the AhR modulating activities of the indole compounds described herein. In this assay, the indole compounds were incubated with human HepG2 cells or mouse Hepa1-6 cells. The activity of CYP1A1 in the cells was measured by the conversion of substrate 7-ethoxyresorufin, with the readout being a fluorescence signal associated with the conversion product. The EC50 values of the indole compounds as well as the maximum luminescence induced by them in the assay were determined.
Human HepG2 cells were obtained from Sigma Aldrich (Catalog 85011430-1VL).
Human HepG2 cells were grown to 60-80% confluency in tissue culture flasks, lifted with non-enzymatic cell dissociation solution (cell stripper), seeded in a 384-well plate at 5,000 cells per well, treated with the test compounds, and incubated for 20 hours overnight at 37° C. The treatment medium was removed and a solution of substrate 7-ethoxyresorufin (ETX) was added to initiate the reaction. The plate was incubated at 37° C. for 30 minutes. The reaction was subsequently terminated by adding tempered methanol. Fluorescent emission was measured at 590 nm with excitation at 530 nm in a FLEXSTATION III instrument (Molecular Devices).

[2] = Hepatocyte intrinsic clearance assay (metabolic stability), rat hepatocytes; format: in vitro ADME; details: rat, cryopreserved hepatocytes, Rat Hepatocytes, 1 μM test compound
Text: as §1, §2, §3, §4, §5, §6, §7, §8

rat hepatocytes = experiment: as above; format: in vitro ADME; details: Rat Hepatocytes; for EH (hepatic extraction ratio): well stirred liver model, fu=1
Text: as §1, §2, §3, §4, §5, §6, §7, §8

[3] = HepG2, human HepG2 cells, Plate 1

Row | SMILES | half-life at 1 μM [1] [min] | hepatocyte CLint at 1 μM [1] [µL/min/1e6 cells] | EH (hepatic extraction ratio) (human hepatocytes) [%] | EC90 (AhR; [3]) [nM] | EC50 (AhR; human HepG2 cells, Plate 1) [nM] | half-life at 1 μM [2] [min] | hepatocyte CLint at 1 μM [2] [µL/min/1e6 cells] | EH (hepatic extraction ratio) (rat hepatocytes) [%] | CLint (human hepatocytes; 1 μM test compound) [μL/min/10^6 cells] | EC90 (AhR; human HepG2 cells, Plate 1) [nM] | EC50 (AhR; human HepG2 cells, Plate 2) [nM] | EC90 (AhR; human HepG2 cells, Plate 2) [nM] | CLint (rat hepatocytes; 1 μM test compound) [μL/min/10^6 cells]
1 | CC(C)(O)c1csc(C(=O)c2c[nH]c3ccccc23)n1 [ARI-215, (1H-indol-3-yl)(4-(2-hydroxypropan-2-yl)thiazol-2-yl)methanone] | 36 | 17.9 | 25.9 | 135 | 119 | 54 | 13.4 | 47.3 | – | – | – | – | –
2 | CCC(C)(O)c1csc(C(=O)c2c[nH]c3cc(F)ccc23)n1 (centres unmarked) [ARI209, (6-fluoro-1H-indol-3-yl)(4-(2-hydroxybutan-2-yl)thiazol-2-yl)methanone] | 48 | 14.7 | 25.0 | – | – | 54 | 12.2 | 44.9 | – | – | – | – | –
3 | COC(=O)c1csc(C(=O)c2c[nH]c3ccccc23)n1 [ARI-001, ITE, reference compound] | – | – | 31.3 | – | 4440 | – | – | 85.7 | 767.365 | 13200 | 29000 | 458000 | 89.786
4 | CC[C@H](O)c1csc(C(=O)c2c[nH]c3ccc(F)cc23)n1 [ARI-194] | 36 | 20.5 | 26.5 | 517 | 409 | 36 | 18.2 | 55.0 | – | – | – | – | –
5 | CC[C@H](O)c1nc(C(=O)c2c[nH]c3cc(F)ccc23)cs1 [ARI-213] | 48 | 14 | 24.7 | 672 | 476 | 48 | 13.9 | 48.1 | – | – | – | – | –
6 | O=C(c1nc(C(O)C(F)(F)F)cs1)c1c[nH]c2ccccc12 (centres unmarked) [ARI088] | 54 | 12.4 | 24.1 | – | – | 60 | 11.6 | 43.7 | – | – | – | – | –
7 | CC[C@@H](O)c1nc(C(=O)c2c[nH]c3cc(F)ccc23)cs1 [ARI-214] | 30 | 21.5 | 26.7 | 2810 | 582 | 84 | 8.01 | 34.9 | – | – | – | – | –
8 | CC[C@@H](O)c1csc(C(=O)c2c[nH]c3ccc(F)cc23)n1 [ARI-195] | 36 | 20.6 | 26.5 | 847 | 289 | 78 | 9.16 | 38.0 | – | – | – | – | –
9 | CCC(O)(CC)c1csc(C(=O)c2c[nH]c3cc(F)ccc23)n1 [ARI-210, (6-fluoro-1H-indol-3-yl)(4-(3-hydroxypentan-3-yl)thiazol-2-yl)methanone] | 42 | 16 | 25.4 | 627 | 241 | 24 | 29.9 | 66.7 | – | – | – | – | –
